Laboratory results reported in ChEMBL document CHEMBL1201862, “PubChem BioAssay data set” (2004).
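Dose response: 5 concentrations. Exposure: 48 h. Format: 96-well plates. Endpoint: linear interpolation; highest concentration if not reached. Abbreviation: GI50, concentration required for 50% inhibition of growth.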 Activity calls are given as the source filed them. No stated cut-off is given here; in the data, active = GI50 up to about 1.1 µM and inactive = higher.

What was measured:
Assay in all cases: inhibition of tumour cell growth, NCI panel, 48 h
CAKI-1 = system: CAKI-1
PC-3 = system: PC-3
EKVX = system: EKVX
MOLT-4 = system: MOLT-4
SNB-75 = system: SNB-75
T47D = system: T47D
SW-620 = system: SW-620
NCI-H522 = system: NCI-H522
IGROV-1 = system: IGROV-1
RPMI-8226 = system: RPMI-8226
SNB-19 = system: SNB-19
A498 = system: A498
SF-539 = system: SF-539
NCI-H226 = system: NCI-H226
HCC 2998 = system: HCC 2998
OVCAR-4 = system: OVCAR-4
A549 = system: A549
HOP-62 = system: HOP-62
LOX IMVI = system: LOX IMVI
KM-20L2 = system: KM-20L2

Measured: GI50

CC(C)(C)c1cc(C2COC(=O)COCC(=O)OCCOCCOCCO2)cc(C(C)(C)C)c1O (stereo not given)
inactive: CAKI-1 24.7 µM | PC-3 40.2 µM | EKVX > 75.7 µM | MOLT-4 > 100 µM | SNB-75 16.1 µM | T47D > 100 µM | SW-620 > 65.8 µM | NCI-H522 > 52.8 µM | IGROV-1 > 100 µM | RPMI-8226 > 100 µM | SNB-19 > 100 µM | A498 > 51.4 µM | SF-539 45.5 µM | NCI-H226 > 100 µM | HCC 2998 14.5 µM | OVCAR-4 > 100 µM | A549 > 31.6 µM | HOP-62 46.7 µM | LOX IMVI 31 µM

COC(=O)C1=CSC2(S1)C(C(=O)OC)=CSc1c2ssc1=O (stereo not given)
inactive: CAKI-1 2.11 µM | PC-3 2.22 µM | EKVX 5.98 µM | MOLT-4 1.97 µM | SNB-75 3.22 µM | T47D 2.14 µM | SW-620 1.33 µM | NCI-H522 1.49 µM | IGROV-1 1.66 µM | RPMI-8226 1.55 µM | SNB-19 6.05 µM | A498 6.28 µM | SF-539 1.57 µM | NCI-H226 22.7 µM | HCC 2998 3.01 µM | OVCAR-4 1.15 µM | A549 7.43 µM | HOP-62 3.06 µM | LOX IMVI 1.64 µM

CC1=C(C)SC(=C2Sc3c(n(C)c(=O)[nH]c3=O)S2)S1
inactive: CAKI-1 > 100 µM | PC-3 > 100 µM | EKVX > 100 µM | MOLT-4 > 100 µM | SNB-75 > 100 µM | T47D > 100 µM | SW-620 > 100 µM | NCI-H522 > 100 µM | IGROV-1 > 100 µM | RPMI-8226 > 100 µM | SNB-19 > 100 µM | A498 > 100 µM | SF-539 > 100 µM | NCI-H226 > 100 µM | HCC 2998 > 100 µM | OVCAR-4 > 100 µM | A549 > 100 µM | HOP-62 > 100 µM | LOX IMVI > 100 µM

CN(C)/C(=N\C#N)NCc1ccccc1
inactive: CAKI-1 > 100 µM | EKVX > 100 µM | SW-620 > 100 µM | NCI-H522 > 100 µM | IGROV-1 > 100 µM | SNB-19 > 100 µM | SF-539 > 100 µM | HCC 2998 > 100 µM | OVCAR-4 > 100 µM | A549 > 100 µM | HOP-62 > 100 µM | KM-20L2 > 100 µM | LOX IMVI > 100 µM

C=C(C)[C@@H]1CCC2=C[C@H](OC2=O)[C@@]2(C)C[C@@H]2C(=O)/C=C(/C)C(=O)[C@H]1OC(C)=O
inactive: CAKI-1 14.2 µM | PC-3 13 µM | EKVX 21.2 µM | MOLT-4 5.66 µM | SNB-75 38.9 µM | T47D 5.64 µM | SW-620 14 µM | NCI-H522 4.3 µM | IGROV-1 14.1 µM | RPMI-8226 4.12 µM | SNB-19 29.2 µM | A498 23.2 µM | SF-539 7.13 µM | NCI-H226 23.9 µM | HCC 2998 21.7 µM | OVCAR-4 13 µM | A549 29.2 µM | HOP-62 34.6 µM | LOX IMVI 7.78 µM

O=C(O)c1ccccc1NC(=O)C1CCCCC1
inactive: EKVX > 100 µM | MOLT-4 > 100 µM | SNB-75 > 100 µM | SW-620 > 100 µM | IGROV-1 > 100 µM | RPMI-8226 > 100 µM | SNB-19 > 100 µM | A498 31.8 µM | SF-539 > 100 µM | NCI-H226 > 100 µM | HCC 2998 > 100 µM | OVCAR-4 > 100 µM | A549 > 100 µM | HOP-62 > 100 µM | KM-20L2 > 100 µM | LOX IMVI > 100 µM

C[C@@H](c1ccccc1)C(CC#N)[C@H]1CCC[C@]1(O)C#Cc1ccc2c(c1)OCO2 (stereo not given in full)
inactive: CAKI-1 15.8 µM | PC-3 15.9 µM | EKVX 19.5 µM | MOLT-4 8.02 µM | SNB-75 16.5 µM | T47D 15.7 µM | SW-620 17.9 µM | NCI-H522 15.3 µM | IGROV-1 14.3 µM | RPMI-8226 23.2 µM | SNB-19 16.1 µM | A498 19.8 µM | SF-539 10.6 µM | NCI-H226 17.5 µM | HCC 2998 16.3 µM | OVCAR-4 15.8 µM | A549 16.3 µM | HOP-62 16.8 µM | LOX IMVI 18.5 µM

OCCNC1c2cc(Cl)ccc2-c2c(Cl)cc(Cl)cc21 (stereo not given)
inactive: CAKI-1 30.3 µM | PC-3 23.3 µM | EKVX 11.6 µM | MOLT-4 22.1 µM | SNB-75 37.9 µM | T47D 36.1 µM | SW-620 30.3 µM | NCI-H522 27.8 µM | IGROV-1 13.2 µM | RPMI-8226 33.1 µM | SNB-19 39.4 µM | A498 48 µM | SF-539 47.9 µM | NCI-H226 > 100 µM | HCC 2998 35.1 µM | OVCAR-4 32.1 µM | A549 30 µM | HOP-62 41.2 µM | LOX IMVI 34.5 µM

O=c1[nH]c(=O)n(C2COC(CO)C2O)cc1F (stereo not given)
inactive: CAKI-1 > 100 µM | PC-3 36.1 µM | EKVX 89.9 µM | MOLT-4 39 µM | SNB-75 31 µM | T47D 50.6 µM | SW-620 55.3 µM | NCI-H522 43.7 µM | IGROV-1 32.4 µM | RPMI-8226 36.5 µM | SNB-19 > 100 µM | A498 5.28 µM | SF-539 3.52 µM | NCI-H226 > 100 µM | HCC 2998 8.73 µM | OVCAR-4 > 100 µM | A549 17.3 µM | HOP-62 17.7 µM | LOX IMVI 11 µM

O=C(O)c1ccccc1/C=C1\Cc2ccccc2C1=O
inactive: CAKI-1 > 100 µM | PC-3 > 100 µM | EKVX > 100 µM | MOLT-4 > 100 µM | SNB-75 > 100 µM | T47D > 100 µM | SW-620 > 100 µM | NCI-H522 > 100 µM | IGROV-1 > 100 µM | RPMI-8226 71.4 µM | SNB-19 > 100 µM | A498 > 100 µM | SF-539 > 100 µM | NCI-H226 > 100 µM | HCC 2998 > 100 µM | OVCAR-4 > 100 µM | A549 > 100 µM | HOP-62 > 100 µM | LOX IMVI 91 µM

CCCC[C@@H](C)/C=C1\CN2CCC[C@H]2[C@@](C)(O)[C@@H]1O
inactive: CAKI-1 4.2 µM | PC-3 > 100 µM | EKVX > 100 µM | MOLT-4 > 100 µM | SNB-75 20.2 µM | T47D 30.8 µM | SW-620 > 100 µM | NCI-H522 56.1 µM | IGROV-1 51.6 µM | RPMI-8226 > 100 µM | SNB-19 58.9 µM | A498 > 100 µM | SF-539 62.2 µM | NCI-H226 > 100 µM | HCC 2998 71.3 µM | OVCAR-4 21.9 µM | A549 43.7 µM | HOP-62 52.1 µM | LOX IMVI 22.8 µM

CCCCn1/c(=N/C(=S)N(C)C)ss/c1=N\C(=S)N(C)C
inactive: CAKI-1 > 100 µM | EKVX > 100 µM | MOLT-4 > 100 µM | SNB-75 > 100 µM | SW-620 > 100 µM | IGROV-1 > 100 µM | RPMI-8226 > 100 µM | SNB-19 > 100 µM | A498 > 100 µM | SF-539 > 100 µM | NCI-H226 7.28 µM | HCC 2998 > 100 µM | OVCAR-4 > 100 µM | A549 > 100 µM | HOP-62 > 100 µM | KM-20L2 > 100 µM | LOX IMVI > 100 µM

CN(C)c1ccc2c(=O)c3ccccc3oc2n1
inactive: CAKI-1 > 100 µM | EKVX 35 µM | MOLT-4 > 100 µM | SNB-75 > 100 µM | SW-620 > 100 µM | NCI-H522 > 100 µM | IGROV-1 93.1 µM | RPMI-8226 > 100 µM | SNB-19 > 100 µM | HCC 2998 > 100 µM | OVCAR-4 > 100 µM | A549 > 100 µM | HOP-62 56.6 µM | KM-20L2 > 100 µM | LOX IMVI > 100 µM

CCOC(=O)C(NC(=O)c1cccc(Cl)c1)(N1CCN(c2cc3c(cc2F)c(=O)c(C(=O)O)cn3CC)CC1)C(F)(F)F (stereo not given)
inactive: CAKI-1 23.7 µM | PC-3 13.4 µM | EKVX 17.1 µM | MOLT-4 3.85 µM | SNB-75 21.4 µM | T47D 19.4 µM | SW-620 12.9 µM | NCI-H522 4.17 µM | IGROV-1 18.3 µM | RPMI-8226 10.9 µM | SNB-19 29.4 µM | A498 20.7 µM | SF-539 15.2 µM | NCI-H226 18.2 µM | HCC 2998 12.6 µM | OVCAR-4 18.6 µM | A549 18.7 µM | HOP-62 20.5 µM | LOX IMVI 17.7 µM

CC(C)(C)c1cc(O)ccc1O [E319]
inactive: CAKI-1 > 57.8 µM | PC-3 1.57 µM | EKVX > 100 µM | MOLT-4 10.3 µM | SNB-75 7.71 µM | T47D 3.83 µM | SW-620 37.8 µM | NCI-H522 5.57 µM | IGROV-1 > 100 µM | RPMI-8226 38.2 µM | SNB-19 > 100 µM | A498 > 100 µM | SF-539 > 100 µM | NCI-H226 > 65.5 µM | HCC 2998 > 10.5 µM | OVCAR-4 > 56.4 µM | A549 > 100 µM | HOP-62 > 100 µM | LOX IMVI > 59.3 µM
